From patent US20250129083A1, “IMIDAZOTETRAZINE COMPOUNDS AND TREATMENT OF TMZ-RESISTANT CANCERS” (THE BOARD OF TRUSTEES OF THE UNIVERSITY OF ILLINOIS, priority 2022, published 2025)
Where two headings read alike, the source gives them in different places.

What was measured:
[1] = test system: GL261 MGMT+ cells; assay: Cell viability assay (Alamar Blue, 7 days), GL261 MGMT+; assay type: cell-based; conditions: Mus musculus, GL261, 168 h
Procedure: To further explore the ability of CPZ to evade MGMT-mediated resistance, MGMT-expressing T98G cells were pretreated with MGMT inhibitor O6BG followed by treatment with TMZ or CPZ. […] This cell death potentiation by TMZ upon treatment with an MGMT inhibitor was also observed in MGMT-expressing cell lines U118MG and RKO, whereas the efficacy of CPZ was again unaffected. For MGMT (−)/MMR (−) HCT116 cells, negligible potentiation of TMZ cytotoxicity was observed upon pretreatment with O6BG, confirming that loss of MMR capacity, not MGMT expression, was responsible for resistance to TMZ in HCT116 cells. Additionally, human MGMT was knocked into the MGMT-negative mouse glioma cell line, GL261, establishing the novel cell line GL261 MGMT+.
(§1) Cell Culture and Reagents. All cell lines were grown in a 37° C., 5% CO2, humidified environment, in media containing 1% penicillin/streptomycin. Stable cell line generation of GL261 MGMT+ was purchased from Creative Biogene. Cell culture conditions are as follows: cell lines U87, T98G, and RKO were grown in EMEM with 10% FBS. D54, GL261, GL261 MGMT+, and U118MG cell lines were grown in DMEM with 10% FBS. HCT116 cells were grown in RMPI with 10% FBS. D341 Med cells were grown in EMEM with 20% FBS. Temozolomide (TMZ) was purchased from AK Scientific. TMZ analogues were synthesized as described below. Compounds were dissolved in DMSO (1% final concentration, Fisher Chemical) for cell culture studies.
(§2) Cell Viability Assays. Cells were harvested, seeded in a 96-well plate and allowed to adhere. After three hours, compound was added to each well in DMSO (1% final concentration). Cells were incubated for seven days (unless otherwise noted) before viability was assessed by the Alamar Blue assay. Raptinal (20 μM) was used as a dead control.
Plated 1500 c/w for GL261; 600 c/w for U87; 600 c/w for U118MG; 1500 c/w for GL261 MGMT+ Incubated ovn and added 1 μL of compound in DMSO the next day. Incubated over 7 days; added Alamar Blue to assess cell viability and used 10 μM Raptinal as dead control. Error is SEM, n=3.

[2] = Hydrolytic stability studies; assay type: physicochemical; conditions: PBS; for half-life at 100 μM: 37° C.; for Hydrolytic stability: percentage of prodrug remaining after 2 hours: pH 7.4, 37° C., HPLC
Procedure: Hydrolytic Stability Studies. Compound (100 μM) was incubated at 37° C. in PBS at pH 7.4 (unless otherwise noted). At the indicated time point, an aliquot was collected and analyzed by HPLC. Compound peaks were integrated and compared to the integration at to calculate the percentage of prodrug remaining.

[3] = test system: D341 Med medulloblastoma cell line; assay: Cell viability assay (Alamar Blue, 7 days), D341 Med; assay type: cell-based; conditions: Homo sapiens, 168 h, MGMT (+)/MMR (−), 7 day
Procedure: as §1, §2

[4] = test system: U87 cells; assay: Killing kinetics study; assay type: cell-based, human
Procedure: (§3) FIG. 2A-F. (A) 7 day IC50 values (M) of compound 10 and CPZ in an expanded panel of GBM cell lines. Cell viability was assessed via the Alamar Blue assay, n≥3, error is SEM. (B-E) 7 day dose-response curves of TMZ and CPZ in cell lines with variable MGMT and MMR status. Error is SEM, n≥3. (F) Killing kinetics of CPZ compared to TMZ in the U87 cell line. Cells were treated with compound once and viability was assessed every 24 hours via Alamar Blue assay. Error is SEM, n≥2.
Killing Kinetics Study. U87 cells were seeded in seven 96 well plates starting at 19,200 cells/well (for 24 hour time point) and serially diluted by two-fold for each subsequent 24 hour time point. At each time point, cell viability was assessed via Alamar Blue assay.

[5] = test system: T98G GBM cell line; assay: Cell viability assay (Alamar Blue, 7 days), T98G; assay type: cell-based, human; conditions: Homo sapiens, T98G, 168 h
Procedure: as §1, §2

[6] = test system: genomic DNA of A172 cells; assay: Quantitation of O6-guanine DNA adducts in cells, A172; assay type: cell-based; conditions: MGMT-negative; LC-MS/MS
Procedure: Importantly, because CPZ was designed to release a different active species than TMZ, the alkylation pattern in a cellular context is likely different. Therefore, to assess if alkylation still occurs with CPZ, a DNA alkylation assay was performed. GL261 cells were treated with 100, 300, or 500 μM TMZ or CPZ for 8 hours after which the cells were harvested and genomic DNA was extracted and subsequently hydrolyzed to constituent deoxyribonucleosides. LC-MS/MS analysis was employed to quantify the amount of O^6-methyl-2′-deoxyguanosine (O^6-Me-dG) or O^6-propargylated-2′-O^6-deoxyguanosine (O^6-Prop-dG) in each sample.
Quantitation of O^6-guanine DNA Adducts in Cells. GL261, A172, or D54 cells were plated at 1×10^6 c/w in a 6-well plate before they were treated with compound at the indicated concentration (1% final concentration DMSO). After incubation for the indicated time, the cells were harvested and pelleted. Genomic DNA was extracted using the DNeasy Blood & Tissue Kit (Qiagen, ID: 69504). DNA was then precipitated using the following procedure: 1/10 v/v […] sodium acetate (pH 5.2) and 2.5× v/v ethanol was added to each sample which was then kept at −80° C. for 1 h. […] Hydrolyzed samples were then submitted for LC-MS/MS quantitation along with a synthetic standard. Samples were analyzed with a 5500 QTRAP LC/MS/MS system (AB Sciex) with a 1200 series HPLC system (Agilent).

[7] = test system: expanded panel of GBM cell lines with or without MGMT expression; assay: Cell viability in expanded panel of GBM cell lines; assay type: cell-based; conditions: for IC50: 168 h, 7 day
Procedure: FIG. 1A-C. Selection and evaluation of MGMT-independent imidazotetrazines. (A) IC50 values (M, 7 days) of TMZ and compound 10 in an expanded panel of GBM cell lines. Cell viability was assessed via the Alamar Blue assay, n≥3, error is SEM. (B) Hydrolytic stability of TMZ at pH 7, 7.4, and 8. Percentage of prodrug remaining was quantified by HPLC, n≥2. (C) Hydrolytic stability of compound 10 at pH 7, 7.4, and 8. Percentage of prodrug remaining was quantified by HPLC, n≥2.
as §3, §2

[8] = 7 day dose-response, human MGMT knock-in, read-out: IC50, GL261 MGMT+
[9] = MGMT (+) MMR (+), 7 days, 1500 c/w, SEM, n=3, read-out: Activity, GL261 MGMT+
[10] = pH 7.4, calculated from hydrolytic stability data, read-out: Half-life, pH 7.4
[11] = MGMT (+) MMR (+), read-out: Activity, T98G

Row | SMILES | IC50 [1, 8] [µM] | IC50 [1, 9] [µM] | half-life at 100 μM ([2]; pH 7, calculated from hydrolytic stability data, read-out: Half-life, pH 7) [h] | Hydrolytic stability: percentage of prodrug remaining after 2 hours [2] [%] | half-life at 100 μM [2, 10] [h] | half-life at 100 μM ([2]; pH 8, calculated from hydrolytic stability data, read-out: Half-life, pH 8) [h] | IC50 [3] [µM] | Time to induce cell death in culture ([4]; at 100 μM) [days] | IC50 [5, 11] [µM] | IC50 ([5]; MGMT (+), Alamar Blue, error SEM, n ≥ 3, read-out: Seven-day IC50, T98G) [µM] | O6-dG alkylation adducts, A172 [6] | Difference in IC50 values between MGMT-negative and positive cell lines ([7]; expanded GBM panel) [fold] | Time to near peak threshold of cell death ([4]; treated once, viability every 24 hours) [h] | IC50 ([7]; read-out: Average IC50 in MGMT (+) cell lines) [µM] | IC50 ([7]; read-out: Average IC50 in MGMT (−) cell lines) [µM]
1 | Cn1nnc2c(C(N)=O)ncn2c1=O [TMZ, temozolomide, reference compound] | > 1000 | > 1000 | 2.97 ± 0.0833 | 40 | ~1.5 | 0.483 ± 0.0167 | 460 | 5 to 10 | 570 ± 20 | > 550 | dose-dependent increase in methyl adducts | > 6 | – | – | –
2 | C#CCn1nnc2c(Cl)ncn2c1=O [CPZ, 8-chloro-3-(prop-2-yn-1-yl)imidazo[5,1-d][1,2,3,5]tetrazin-4(3H)-one] | 29 | 29 ± 5 | – | 30 | 1.2 | – | 8 | – | 27 ± 6 | – | did not harbor measurable levels of the propargyl adduct | – | ≤ 72 | 22 | 16
